The source made the active and inactive calls. No rule for the calls is given here.

This assay deals with Trypanosoma brucei growth inhibition, luminescence. In words: Trypanosoma brucei growth inhibition, luminescence (AID 1159562).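 Also: parasites grew with compound for 24 h before the luminescence read.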
`CC(Cn1ccnc1)NC(=O)COc1ccc(Cl)c(Cl)c1` (centres undefined): the IC50 (commonly the concentration at which inhibition is half-maximal) is > 40000 nM (inactive).
Turning to `O=C(c1cccc(Nc2ncc(-c3ccc4c(c3)OCO4)cn2)c1)N1CCSC1`, the IC50 is > 40000 nM (inactive).
Then `CNC(=O)Oc1ccc(C(=O)NCc2ccccc2)cc1OC(=O)NC`, with 400 nM.
Then `CCN(CC)S(=O)(=O)c1ccc(C)c(NC(=O)c2cc(Cl)c3c(c2)OCO3)c1`, with 160 nM; and `Cc1cc(C)cc(NS(=O)(=O)c2cc(-c3cc(C)[nH]n3)ccc2C)c1`, with 2000 nM.
For `COc1ccc(-c2csc(NC(=O)c3ccc([N+](=O)[O-])s3)n2)cc1OC` the value was 630 nM; for `NS(=O)(=O)c1ccc(CNC(=O)c2ccc([N+](=O)[O-])s2)cc1`, 250 nM; for `CCOc1ccc(Nc2ccc(S(=O)(=O)N3CCN(C)CC3)cc2[N+](=O)[O-])cc1OCC`, 32000 nM.
`NS(=O)(=O)c1ccc(Nc2nccc(-c3cnn4ncccc34)n2)cc1`: the IC50 is 160 nM.

The record behind these values is PubChem BioAssay AID1159562 (GlaxoSmithKline (GSK), 2015).
